Experiment [1] concerns macrophages. The experiment in a line: Inhibitory effect of N^GMMA on NO production induced by liquids of Example 1 in macrophages. The experiment is classed as cell-based, mice. The conditions noted are these: macrophages with liquids (1 mg/mL) of Example 1 and IFN-γ; FIG. 3. The procedure: (§1) The amount of NO production from macrophages was measured by Griess reaction by quantitizing nitrite (NO2^−), oxides of NO, accumulated on the broth. That is, 100 μL of Griess reagents in which 0.1% naphthylethylene diaminedihydrochloride and 1% sulfanilamide is mixed at the same amount and 100 μL of culture media was mixed, and after 10 minutes, absorbance was measured at 540 nm by ELISA reader. Standard curve using sodium nitrite as standard substance was drawn and the concentration of NO was determined from the absorbance.
To investigate if iNOS production from macrophages by the composition of the present invention is included in L-arginine-dependent process, the macrophages were treated liquids (1 mg/mL) of Example 1 in the presence of IFN-γ and NGMMA, the competitive inhibitor of NO production, and the amount of NO production was measured by the same method as Experiment 2.

The test system of experiment [2] is macrophages. The experiment in a line: Inhibiting effect on iNOS production by NF-kB inhibitor (NO2^- concentration in macrophages). The experiment is classed as cell-based, mice. The procedure:
as §1
Hereupon, macrophages were treated with recombinant IFN-γ (rIFN-γ) and liquids (1 mg/mL) of Example 1 followed by treatment with pyrrolidine dithiocarbamnate (PDTC) and N^α-Tosyl-phenylalanyl chloromethyl ketone (TPCK), which are NF-kB inhitors, respectively and the change of concentration of NO2^− was observed together with control group. The results are shown in the hereinbelow Table 1 [Inhibitory effect on iNOS production by NF-kB inhibitor].

On to `CNC(=N)NCCC[C@H](N)C(=O)O` [N^GMMA, N^G-monomethyl-L-arginine], for which the “amount of NO production as the amount of N^GMMA increases” value with macrophages [1] is on record as “tendency to decrease”.
For the molecule `S=C(S)N1CCCC1` [PDTC, pyrrolidine dithiocarbamnate], the “Concentration of NO2^-” value in the experiment with macrophages [2] (rIFN-γ (10 U/mL) + Liquids of Example 1 (1 mg/mL) + PDTC (100 μM)) is given as 10.5 ± 2.8.

B1: rIFN-γ: recombinant IFN-γ (rIFN-γ), used at 10 U/mL (protein, UniProt P01579 24-161, looked up)
Interferon gamma: QDPYVKEAENLKKYFNAGHSDVADNGTLFLGILKNWKEESDRKIMQSQIVSFYFKLFKNFKDDQSIQKSVETIKEDMNVKFFNSNKKKRDDFEKLTNYSVTDLNVQRKAIHELIQVMAELSPAAKTGKRKRSQMLFRG
For the molecule B1, the “Concentration of NO2^-” value in the experiment with macrophages [2] (rIFN-γ (10 U/mL) only) amounted to 32 ± 3.2.

The values are drawn from patent publication US7118767B2, “Pharmaceutical composition for increasing the production of nitric oxide and IFN-γ, and process for preparation thereof” (Jakwang Co., Ltd., priority 2001, dated 2006).
